# Experimental data published in PMC12164290, “Immune-modulatory effects of Spindlin-1 inhibitors” (Clinical and Experimental Immunology, 2025).
# Read-outs that look alike come from different tables or passages of the source.
# Tests used:
# M1 MdMs [1] = experiment: energy metabolism (Seahorse OCR/ECAR), M1 MdMs; format: cell-based, human; settings: polarized 48 h in presence of compound
# Protocol: (§1) The energy metabolism was determined as described previously. Briefly, for the analysis of the extracellular acidification rate (ECAR) and the oxygen consumption rate (OCR) for human M1 MdMs, M2 MdMs, and activated B-/ CD4^+ T cells, the Seahorse XFe96 FluxPak (Agilent, Waldbronn, Germany) was used as recommended by the supplier. MdMs were polarized to M1 or M2 MdMs, B- and CD4^+ T cells were activated in the presence of A366, MS31, or vehicle (DMSO) for 48 h (M1 MdMs), 24 h (M2 MdMs) or 5 days (T/B cells). Cells were washed with Seahorse XF RPMI medium pH 7.4 (Agilent, Waldbronn, Germany), and OCR and ECAR were measured for a period of 120 min using the Seahorse XFe96 Analyzer (Agilent, Waldbronn, Germany) and analyzed by Wave Software (Agilent, Waldbronn, Germany). For T/B cells, the values after 50 min of stimulation of samples were related to the unstimulated control sample. For macrophages, the values at 50 min in treated samples were related to the vehicle control.
# M1 MdMs [2] = experiment: viability assay (Orangu, formazan-based), M1 MdM; format: cell-based, human; settings: 48 h, n = 3
# Protocol: (§2) 2 × 10^5 CD4^+ T cells, 1 × 10^5 B cells, 1 × 10^5 monocytes, 1 × 10^5 M1 MdMs, or 1 × 10^5 M2 MdMs were treated with A366, MS31, or vehicle for 48 h. The viability was determined with the Orangu^TM assay as described by the manufacturer.
# M1 macrophages = experiment: polarization of MdMs to M1 macrophages (surface markers, cytokines, viability); format: cell-based, human
# Protocol: (§3) The generation of monocyte-derived macrophages (MdMs) was performed as previously described. Briefly, 0.5 × 10^6 CD14^+ cells/well were differentiated to macrophages in the presence of 10 ng/ml M-CSF (for M2 macrophages) or 10 ng/ml GM-CSF (for M1 macrophages) for 7 days. The macrophages were polarized in the presence of different concentrations of A366, MS31, or vehicle (DMSO) in 48-well plates. After pre-incubation with test substances or DMSO for 30 min, stimulants for differentiation were added: 20 ng/ml IFNγ for M1 macrophages and 10 ng/ml IL4 for M2 macrophages and incubated for 48h and 24h, respectively.
# (§4) For analysis of the surface markers, 1.5–2*10^5 cells of each sample were blocked with human FcR Blocking Reagent (15 min, 4 °C). Afterwards, samples were stained with up to 7 µl of a mixture of different surface marker antibodies (15 min, 4 °C) and 250 µl of 10 % FCS/PBS were added. After centrifugation (300 g, 5 min, 4 °C) samples were resuspended in 100 µl PBS and measured with MACSQuant® Analyzer 10 flow cytometer. For M1-/M2-MdMs, anti-CD86, anti-CD14, anti-HLA-DR, anti-CD206, anti-CD80, anti-TREM2, and anti-CD163 were used. For CD4^+ T cells, anti-CD69, anti-CD45RO, anti-CD134, anti-CD154, anti-CD3, anti-CD25 were employed. For B cells, anti-CD27, anti-CD19, and anti-CD38 were applied. Zombie Aqua™ Fixable Viability Kit (1:500 dilution, BioLegend, San Diego, CA, USA) (for CD4^+ T cells, macrophages) or Annexin/PE staining (BD Biosciences, Heidelberg, Germany) (for B cells) was used to discriminate living and dead cells according to the manufacturers protocol. For T cell and B cell proliferation assays, freshly isolated T and B cells were stained with CTV and the decrease in CTV as a result of cell proliferation was detected by flow cytometry. CTV positive cells were gated in high proliferating cells (low CTV level), medium proliferating cells (medium CTV level), and nonproliferating cells (high CTV level). Plasmablasts were characterized as CD27^+CD38^+ cells, naïve B as CD19^+CD27^lowCD38^med, and memory B cells as CD19^+CD27^med CD38^low (Supplementary Fig. 1). For M1 MdMs, the cell population was gated using FSC/SSC channel, for M2 MdMs, the CD163^med population was gated since IL4 downregulates CD163 [18] and for CD4^+ T cells, CD3^+CD25^+ cells were gated. Geometric mean of the fluorescent intensity was calculated using FlowJo software V10 (Treestar, Ashland, TN, USA). Fold induction of surface marker expression was calculated using the DMSO-treated cells as control.
# (§5) For determination of cytokine concentrations (IL10, IL17, IL8, IL6, IFNγ, CCL2) in the supernatant of humane immune cells, cytometric bead array (BD Biosciences, Heidelberg, Germany) was used. For the detection of IgG, IgA, PGE2, CCL18, and CCL17 an ELISA was performed. The cytometric bead arrays and the ELISAs were performed according to the manufacturers protocol.
# B cells [3] = experiment: B cell activation with IL-21, sCD40L, CpG, anti-IgM (proliferation, plasmablasts, IgG/IgA, viability); format: cell-based, human; settings: for B cell proliferation / formation of plasmablasts / release of IgA / release of IgG: IL-21, sCD40L, CpG, anti-IgM, 5 days, A366 and MS31 concentration-dependent
# Protocol: B cells were activated as described previously. Briefly, 1.25 × 10^5 B cells (stained with 0.25 µM CTV) per well were seeded in a 48 well plate and pretreated with A366, MS31, rapamycin, or vehicle (DMSO) for 30 min and then stimulated with 2.5 μg/ml CpG, 5 μg/ml unconjugated goat antihuman IgM F(ab′)2 fragments, 1 μg/ml sCD40L, and 50 ng/ml recombinant human IL-21 for 5 days.
# as §4, §5
# CD4+ T cells [4] = experiment: viability assay (Orangu, formazan-based), CD4+ T cells; parameters: species or system human; settings: 48 h, n = 3, read-out: T cell viability IC50
# Protocol: as §2
# [5] = test system: Spindlin-1-H3K4me3-interaction; parameters: method as in PMID 31260300, PMID 34492335; settings: cited from earlier work
# CD4+ T cells [6] = experiment: CD4+ T cell activation with anti-CD3/anti-CD28 (proliferation, surface markers, cytokines, viability); format: cell-based
# Protocol: CTV staining was performed according to the protocol of supplier.
# For analysis of the surface markers, 1.5–2*10^5 cells of each sample were blocked with human FcR Blocking Reagent (15 min, 4 °C). Afterwards, samples were stained with up to 7 µl of a mixture of different surface marker antibodies (15 min, 4 °C) and 250 µl of 10 % FCS/PBS were added. After centrifugation (300 g, 5 min, 4 °C) samples were resuspended in 100 µl PBS and measured with MACSQuant® Analyzer 10 flow cytometer. […] For CD4^+ T cells, anti-CD69, anti-CD45RO, anti-CD134, anti-CD154, anti-CD3, anti-CD25 were employed. […] Zombie Aqua™ Fixable Viability Kit (1:500 dilution, BioLegend, San Diego, CA, USA) (for CD4^+ T cells, macrophages) or Annexin/PE staining (BD Biosciences, Heidelberg, Germany) (for B cells) was used to discriminate living and dead cells according to the manufacturers protocol. For T cell and B cell proliferation assays, freshly isolated T and B cells were stained with CTV and the decrease in CTV as a result of cell proliferation was detected by flow cytometry. CTV positive cells were gated in high proliferating cells (low CTV level), medium proliferating cells (medium CTV level), and nonproliferating cells (high CTV level). […] For M1 MdMs, the cell population was gated using FSC/SSC channel, for M2 MdMs, the CD163^med population was gated since IL4 downregulates CD163 [18] and for CD4^+ T cells, CD3^+CD25^+ cells were gated. Geometric mean of the fluorescent intensity was calculated using FlowJo software V10 (Treestar, Ashland, TN, USA). Fold induction of surface marker expression was calculated using the DMSO-treated cells as control.
# monocytes = experiment: viability assay (Orangu, formazan-based), monocytes; format: cell-based, human; settings: 48 h, n = 3, read-out: Monocyte viability IC50
# Protocol: as §2
# B cells [7] = experiment: viability assay (Orangu, formazan-based), B cells; parameters: species or system human; settings: 48 h, n = 3, read-out: B cell viability IC50
# Protocol: as §2
# M2 MdMs [8] = experiment: viability assay (Orangu, formazan-based), M2 MdM; format: cell-based, human; settings: 48 h, n = 3
# Protocol: as §2
# M2 macrophages = experiment: polarization of MdMs to M2 macrophages (surface markers, cytokines, viability); format: cell-based, human
# Protocol: as §3, §4, §5
# M2 MdMs [9] = experiment: energy metabolism (Seahorse OCR/ECAR), M2 MdMs; format: cell-based, human; settings: polarized 24 h in presence of compound
# Protocol: as §1
# [10] = test system: primary human immune cells; experiment: viability of primary human immune cells, formazan-based Orangu assay (ranges over cell types); settings: 48 h
# Protocol: as §2
# B cells [11] = experiment: energy metabolism (Seahorse OCR/ECAR), activated B cells; format: cell-based, human; settings: 5 days
# Protocol: as §1
# [12] = M1 polarization, 48 h, flow cytometry
# [13] = M1 polarization, 48 h, supernatant
# [14] = M2 polarization, 24 h, supernatant
smiles,measurement,setting,value
COc1c(CN)cc(CN)cc1OCCCN1Cc2ccccc2C1 [MS31],"energy metabolism (OCR, ECAR) of M1 MdMs",M1 MdMs [1],did not affect
same,IC50,M1 MdMs [2],3.12 mM
same,overall effect on M1 polarization,M1 macrophages,may shift M1 to an M2 phenotype
same,cytotoxicity during polarization of M1 macrophages,"M1 macrophages; 0–50 µM, 48 h, zombie staining",did not induce cytotoxicity
same,CD163 surface marker expression,M1 macrophages; [12],slightly increased
same,TREM2 surface marker expression,M1 macrophages; [12],slightly increased
same,release of IFNγ,M1 macrophages; [13],upregulated the release of IFNγ more pronouncedly
same,release of IL8,M1 macrophages; [13],significantly inhibited
same,"B cell activation (proliferation, plasmablast formation, release of immunoglobulins A and G)",B cells [3]; 2.5 µM,clearly prevented
same,B cell proliferation,B cells [3],markedly reduced
same,formation of plasmablasts,B cells [3],markedly reduced
same,release of IgA,B cells [3],markedly reduced
same,release of IgG,B cells [3],markedly reduced
same,IC50,CD4+ T cells [4],22 µM
same,IC50,[5],77 nM
same,cytotoxic effects on CD4+ T cells,"CD4+ T cells [6]; 0–10 µM, 5 days",no cytotoxic effects
same,CD134 expression,"CD4+ T cells [6]; activated CD4+ T cells, 5 days",increased
same,"activation of CD4+ T cells (CD25 positive, CD25 and CD69 positive cells, CD69)","CD4+ T cells [6]; anti-CD3/anti-CD28, 5 days",did not influence
same,proliferation of CD4+ T cells,"CD4+ T cells [6]; anti-CD3/anti-CD28, 5 days, CTV",did not affect
same,IC50,monocytes,42 µM
same,IC50,B cells [7],11 µM
same,IC50,M2 MdMs [8],89 µM
same,overall effect on M2 polarization,M2 macrophages,may weaken M2 polarization
same,cytotoxicity during polarization of macrophages to M2 MdMs,"M2 macrophages; 0–50 µM, zombie staining",did not induce cytotoxicity
same,CD86 surface marker expression,"M2 macrophages; M2 polarization, 24 h, flow cytometry",reduced
same,CCL2 release,M2 macrophages; [14],reduced
same,CCL18 release,M2 macrophages; [14],increased
same,IL10 release,M2 macrophages; [14],reduced
same,PGE2 release,M2 macrophages; [14],reduced
same,OCR in M2 MdMs,M2 MdMs [9],only slightly increased
same,IC50,"[10]; range for CD4+ T cells and B cells, read-out: viability IC50 values",11 to 22 µM
same,IC50,"[10]; range over all immune cell types tested, read-out: IC50, immune cell type-dependent cytotoxicity",11 to 3120 µM
CO[C@H]1C[C@@H]2CC[C@@H](C)[C@@](O)(O2)C(=O)C(=O)N2CCCC[C@H]2C(=O)O[C@H]([C@H](C)C[C@@H]2CC[C@@H](O)[C@H](OC)C2)CC(=O)[C@H](C)/C=C(\C)[C@@H](O)[C@@H](OC)C(=O)[C@H](C)C[C@H](C)/C=C/C=C/C=C/1C [rapamycin],B cell proliferation,B cells [3],inhibit
same,formation of plasmablasts,B cells [3],inhibit
same,release of IgA,B cells [3],inhibit
same,release of IgG,B cells [3],inhibit
same,"energy metabolism of activated B cells (OCR, ECAR)",B cells [11],induced both glycolysis and oxidative phosphorylation
